“Also recorded” adds a separate entry of the source. Where two headings read alike, the source gives them in different places.
Key:
[1] = tested on: mouse brain (c-fos expression)
Text: A unique and novel approach to preclinical testing of psychiatric drugs is based on the proposition that a direct readout of drug-evoked brain activation or inhibition in an animal is the most relevant preclinical assay, because psychiatric drugs exert their effects via activation or inhibition of specific neural circuits and cell types in the brain. […] The method called “pharmacomapping” (implemented by Certerra, Inc. Farmingdale, N.Y.) is based on a largely automated drug-screening platform that comprises whole-brain detection of drug-evoked neuronal activation represented by drug-evoked expression of the immediate early gene (IEG) c-fos (Herrera and Robertson 1996). Until now, the detection of c-fos as a marker of brain activation has been done by laborious methods of in situ hybridization or immunohistochemistry in brain tissue sections, followed by mounting the sections on microscopic slides, manual imaging, and largely visual quantification. Nevertheless, over the last two decades a number of studies used these methods to test drug-evoked activity in the mouse or rat brain for various psychoactive medications, including antipsychotics, antidepressants, stimulants and anxiolytics (Engber et al., 1998; Kiss, 2018; Salminen et al., 1996; SEMBA et al., 1996; Slattery et al., 2005; Sumner et al., 2004).
In contrast to the older methods, the pharmacomapping method uses automated and standardized whole-brain immunostaining and brain clearing together with advanced microscopy (light-sheet fluorescence microscopy, LSFM), computational (e.g. machine learning) and statistical methods (FIG. 1). The first generation of this platform used serial two-photon tomography (STPT) as a method for imaging and c-fos-GFP mice expressing green fluorescent protein (GFP) under the control of the c-fos promoter (US 20140297199A1).

[2] = tested on: mouse; assay: forced swim test; assay type: in vivo; details: for time spent in floating (immobility) during a 6 min forced swim: compared to control vehicle-treated group, FIG. 5; for time spent floating in forced swim: single dose 10 mg/kg, vs vehicle
Method: The forced swim test is a frequently used behavioral protocol with a well-established therapeutic predictability for a broad range of antidepressants including ketamine (Porsolt et al. 1977; Cryan and Mombereau 2004; Cryan et al. 2005; Lucki et al. 2001). In this test the mouse is put in a beaker filled with water and the time spent struggling, swimming and floating is measured, with the time spent floating when the mouse stops struggling to swim—being used as a behavioral correlate of depression.

[3] = tested on: combined delta, theta and alpha activity; details: 160 minutes after the first treatment; Nutt et al (2015); cited from earlier work
[4] = cited from earlier work; for Apparent t1/2: harmonic mean N = 10; for Tmax: median N = 10
[5] = tested on: patients with severe major depressive disorder; details: daily oral gaboxadol 5 mg or 10 mg with escitalopram 20 mg, 490 patients; cited from earlier work
[6] = tested on: insomnia; details: three-month efficacy study; cited from earlier work
[7] = acute single dose 10 mg/kg, 10 mg/kg
[8] = 10 mg I.V., geometric mean N = 10
[9] = 10 mg Oral, geometric mean N = 10

Oc1noc2c1CCNC2 [gaboxadol, 4,5,6,7-tetrahydroisoxazolo (5,4-c) pyridin-3-ol]
drug-evoked brain activation (pharmacomap) ([1]; 3 mg/kg alone): neither gaboxadol at 3 mg/kg nor ketamine at 6 mg/kg alone evoked any brain activation detectable | drug-evoked brain activation (pharmacomap) [1, 7]: very similar brain activation as ketamine | drug-evoked brain activation (pharmacomap) ([1]; acute single dose 10 mg/kg, listed as Gaboxadol, 10 mg/kg): broad brain activation that is highly similar to that of ketamine | time spent in floating (immobility) during a 6 min forced swim [2]: significantly reduced | time spent floating in forced swim ([2]; 1 hour after drug delivery): nearly identical behavioral effect as the ketamine group | time spent floating in forced swim ([2]; 24 hours after drug delivery): nearly identical behavioral effect as the ketamine group | whole head MEG planar gradiometer increase in combined delta, theta and alpha activity [3]: ≥ +3 | fe ([4]; 2.5 mg single oral dose, geometric mean N = 10): 43% | AUC0-∞ ([4]; 2.5 mg single oral dose, geometric mean N = 10, potency adjusted): 90 ng·h/mL | Apparent t1/2 ([4]; 2.5 mg single oral dose): 1.5 h | Tmax ([4]; 2.5 mg single oral dose): 0.5 h | fe ([4]; 5 mg single oral dose, geometric mean N = 10): 45% | Apparent t1/2 ([4]; 5 mg single oral dose): 1.5 h | Tmax ([4]; 5 mg single oral dose): 0.6 h | AUC0-∞ [4, 8]: 380 ng·h/mL | fe [4, 8]: 53% | Apparent t1/2 ([4]; 10 mg I.V.): 1.5 h | CLR [4, 9]: 250 mL/min | fe [4, 9]: 53% | Apparent t1/2 ([4]; 10 mg Oral): 1.6 h | Tmax ([4]; 10 mg Oral): 0.5 h | fe ([4]; 15 mg single oral dose, geometric mean N = 10): 50% | Apparent t1/2 ([4]; 15 mg single oral dose): 1.5 h | Tmax ([4]; 15 mg single oral dose): 0.5 h | fe ([4]; 20 mg single oral dose, geometric mean N = 10): 53% | Apparent t1/2 ([4]; 20 mg single oral dose): 1.6 h | Tmax ([4]; 20 mg single oral dose): 0.6 h | dose proportionality of plasma AUC0-∞ and Cmax ([4]; dose range 2.5 to 20 mg oral): dose proportional increases | half-life (t1/2) ([4]; independent of dose across 2.5 to 20 mg oral): 1.5 h | additional benefit in treatment of severe major depressive disorder [5]: no additional benefit | effects in sleep onset and sleep maintenance [6]: failed to show significant effects

CNC1(c2ccccc2Cl)CCCCC1=O (centres unmarked) [ketamine]
drug-evoked brain activation (pharmacomap) ([1]; 6 mg/kg alone): neither gaboxadol at 3 mg/kg nor ketamine at 6 mg/kg alone evoked any brain activation detectable | drug-evoked brain activation (pharmacomap) ([1]; acute single dose 5 mg/kg): modest activation | drug-evoked brain activation (pharmacomap) [1, 7]: very robust and broad activation; also recorded: very broad activation pattern | drug-evoked brain activation (pharmacomap) ([1]; acute single dose 100 mg/kg): modest activation | time spent in floating (immobility) during a 6 min forced swim [2]: significantly reduced | time spent floating in forced swim ([2]; 1 hour after drug delivery): significantly decreases | time spent floating in forced swim ([2]; 24 hours after drug delivery): significantly decreases

— patent US11123332B2 (priority 2018, dated 2021)
